From the OligoGym collection
These antisense oligonucleotides have a phosphorothioate backbone; sugars and methylation of C are not fully specified.

Molecular target: BIRC2
Details: ASO
Further: test concentration or dose not given here.

Row | Sequence | remaining target (mRNA or protein) (fraction of control)
1 | ATTCTTATCCACAAATAA | ≥ 1
2 | CAATCTGACAAGATCGTG | ≥ 1
3 | CATTTCTTCAGCTTGTTT | ≥ 1
4 | CCAAGGTGGGAGATAATG | 0.97
5 | CCAGATTCTGAATAAAGC | ≥ 1
6 | CTAGTGTTATCAGAAACG | ≥ 1
7 | CTCAGATTTGAAATGCTA | ≥ 1
8 | GACCACAAGGAATAAATA | ≥ 1
9 | GAGTAAGAACCACTGAAC | ≥ 1
10 | GGTAACCTAAGTGCTATT | ≥ 1
11 | TACCTTGAATCTCATCAA | ≥ 1
12 | TAGAATTAAGAGGGTTTG | ≥ 1
13 | TAGAGTTCACAGGAAAAG | ≥ 1
14 | TATATGCAGGCTTCTTTC | 0.77
15 | TCAGGTAGGATGAGTATC | 0.89
16 | TCGCTTGTAAAGGTATCT | ≥ 1
17 | TGCCTTTTATTTATATTT | ≥ 1
18 | TGGTAGGTAAGAAATCTG | ≥ 1
19 | TTAAGGACTATTCAGCTA | ≥ 1
20 | TTAGATGGCTTCAAGTGT | 0.9
21 | TTAGTTAGCCATAAAATT | ≥ 1
22 | TTCCCAACACCTCAAGCC | 0.45
23 | TTCCCAGTTACTGAGCTT | 0.22
24 | TTCCTGGTTTCCAGTTCT | 0.54
25 | TTGGCTTAAAGTTCAAAA | ≥ 1
26 | TTTCTCATTGGAGACGTA | 0.68
27 | TTTCTTCACATGAACTAA | ≥ 1
28 | TTTTACTTTGAACTGTTT | ≥ 1

Molecular target: INPPL1
Details: ASO

Row | Sequence | remaining target (mRNA or protein) (fraction of control)
29 | AAGTAGTTTTGGTTCCTC | ≥ 1
30 | ACAGACCAGGAGACAGTG | 0.94
31 | ACGGTGGGATAGGAAGGT | ≥ 1
32 | AGACCCACACAGAACAGT | ≥ 1
33 | AGAGCAGGGCAGCACAGA | ≥ 1
34 | AGGTGGGTGGGAAGGAGA | 0.98
35 | ATGTTGTCACTGCTCTGG | 0.92
36 | CACCCCAATAAATAGGCA | ≥ 1
37 | CAGGCGGTAGTTGAGGTC | ≥ 1
38 | CAGTGGTGGAGGTGGAAA | ≥ 1
39 | CATGGCTGATACGGTTCT | 0.98
40 | CCAACCTCAAATGTCCCA | ≥ 1
41 | CCATAGGATTCATAGCCA | ≥ 1
42 | CCATAGTCCGAGGGCAGT | 0.88
43 | CCTCATAACTTTTCAACC | ≥ 1
44 | CCTTGTCCACCTCACTGT | 0.81
45 | CGCTCTCGCTGTCTCGGA | ≥ 1
46 | CGTTGGTGGCGGTTTCTC | 0.93
47 | CTCTGGTTCTTCAAATAA | ≥ 1
48 | GACAGCACCAGAGTAACC | 0.69

Row | Sequence | remaining target (mRNA or protein) (fraction of control)
49 | GACATCACGCCGCAACCC | 0.39
50 | GAGATACTGCCCTGACCC | ≥ 1
51 | GCACCAGCCGCCCACCCT | 0.3
52 | GCACCCCAGCCTCCTCCA | 0.79
53 | GGAGATGAACTGGGAGGT | 0.48
54 | GGATGCGGTCGTGCGTGA | 0.86
55 | GGTCCTTCTCCTTCTCAA | 0.52
56 | GTGCCTATGAAGACTGAG | 0.4
57 | GTGGCAGATGGGACAGGG | ≥ 1
58 | TCCAAGTCCTCCTCGGTG | ≥ 1
59 | TCCAGGCAGGTAGAGTAG | ≥ 1
60 | TCCCCACTGCCCACTTCC | ≥ 1
61 | TCCCTCCCCAGACCCACA | ≥ 1
62 | TCCGTCCTGAGCCTAAAA | 0.7
63 | TCTGTGACTTCCCAATCT | 0.93
64 | TGCCCCACCCCAACCAAC | ≥ 1
65 | TGCGGCTGGCTGTCTTCA | 0.85
66 | TGCTCCTGCCTCATCCTT | 0.54
67 | TGTGCCTCCAGACTCCTC | 0.59
68 | TTGCGGCTCCCTGACCTG | ≥ 1

Molecular target: PCK2
Details: ASO

Row | Sequence | remaining target (mRNA or protein) (fraction of control)
69 | AAGATGTTAGTTAATATCAA | ≥ 1
70 | AATGCCAGTGGGAAGCTGGC | 0.88
71 | ACCAGGCGGGAGTGGTACCG | 0.84
72 | AGACTAGGCCTCAGGTCACA | ≥ 1
73 | AGGAACCGAGCGGAGCCGGG | 0.68
74 | AGTACACGCCACCATCACTG | 0.91
75 | CACCGTCTTGCTCTCTACTC | 0.85
76 | CACTTGACAAAGTCACCATC | ≥ 1
77 | CCAGTCGGGTCATAATACGC | 0.74
78 | CCCACAAACACCCCATGACG | 0.35
79 | CCGGGCCAGCCGAGAGGCGA | ≥ 1
80 | CTGCATGCAGCCTGGAAACC | 0.83
81 | CTTGCCCAGCAGGGAGTTGC | ≥ 1
82 | CTTTGTGTTCTGCTGCAGCA | 0.49
83 | GAGCATTCTCCCCAAAGCCT | 0.95
84 | GAGCTGCACCCCGATGCGGG | ≥ 1

Row | Sequence | remaining target (mRNA or protein) (fraction of control)
85 | GCGTTGGGATTGGTGGTGGC | 0.82
86 | GCTACGGCATGATGGCCAGC | 0.89
87 | GGACAGTCTTTGTGGGAAGG | ≥ 1
88 | GGCACTAGGGAAGGCGGCTG | 0.84
89 | GGCAGATCCTGGTTGACCTG | 0.81
90 | GGCCCGGAGTCGACCTTCAC | 0.68
91 | GGCGGTACAATGCGGCCATG | 0.81
92 | GGGCCTCCCAGGCTGGGTCC | ≥ 1
93 | GGTGATGCCCAGGATCAGCA | 0.78
94 | GTAGTGCCCGAAGTTGTAGC | 0.77
95 | TCACATTTTGTGCACACGTC | 0.76
96 | TCACGAACCTCCTGTTCCCA | 0.6
97 | TCACGCCGGAACCAGTTGAC | ≥ 1
98 | TCCAGCCTGGCAGTGCAGGC | 0.75
99 | TCCATCACAGATGTGGATGC | 0.87

Molecular target: RHOC
Details: ASO

Row | Sequence | remaining target (mRNA or protein) (fraction of control)
100 | ACTCAAGGTAGCCAAAGG | 0.67
101 | ACTCTGGGTCCCTACTGC | 0.8
102 | AGACACTTTCCTGTGAGC | 0.31
103 | AGGCACCATCCCCAACGA | 0.19
104 | AGGGCAGGGCATAGGCGT | 0.69
105 | AGGTCTTCCCACAGGCAC | 0.6
106 | AGTTCTCAAAGACAGTAG | 0.62
107 | ATGAGGAGGCAGGTCTTC | 0.59
108 | CACTTTCCTGTGAGCCAG | 0.18
109 | CAGACCGAACGGGCTCCT | 0.35
110 | CATGAGGAAGGGCAGGGC | ≥ 1
111 | CCCCTCCGACGCTTGTTC | 0.34
112 | CCGGCTGAAGTTCCCAGG | 0.58
113 | CCTGTGAGCCAGAAGTGT | 0.31
114 | CTCAAACACCTCCCGCAC | 0.66
115 | CTCCCGCACTCCCTCCTT | 0.09
116 | CTCCTGGTGTGCTCGTCT | 0.33
117 | CTTGTTCTTGCGGACCTG | 0.28
118 | GAAAATGGAGCCTTCAGT | 0.76
119 | GAGCCTTCAGTATGGAGC | 0.37

Row | Sequence | remaining target (mRNA or protein) (fraction of control)
120 | GAGCTGAGATGAAGTCAA | 0.71
121 | GCAGGAGGGAACTGAAAA | 0.73
122 | GCTGAAGTTCCCAGGCTG | 0.75
123 | GGAACTGAAAATGGAGCC | 0.98
124 | GGAAGGGCAGGGCATAGG | 0.79
125 | GGAGGGAACTGAAAATGG | 0.87
126 | GGCACCATCCCCAACGAT | 0.19
127 | GGCCATCTCAAACACCTC | 0.36
128 | GTATGGAGCCCTCAGGAG | 0.4
129 | GTGTGCTCGTCTTGCCTC | 0.33
130 | TAAAGTGCTGGTGTGTGA | 0.61
131 | TCAAAGACAGTAGGGACG | ≥ 1
132 | TCCCACAGGCACCATCCC | 0.3
133 | TCGTCTTGCCTCAGGTCC | 0.21
134 | TGCAGAAACAACTCCAGG | ≥ 1
135 | TGTTTTCCAGGCTGTCAG | 0.41
136 | TTCCTCAGACCGAACGGG | 0.43
137 | TTCCTGTGAGCCAGAAGT | 0.31
138 | TTCTCAAAGACAGTAGGG | 0.98
139 | TTGCTGAAGACGATGAGG | 0.77
